Data from patent US7420001B2 (Wyeth, priority 2003, dated 2008).
Read-outs that look alike come from different tables or passages of the source.

Legend:
[1] = molecular target: T1, Aggrecanase-1 (Homo sapiens, UniProt O75173); assay: Aggrecanase-1 FRET assay; format: biochemical; settings: for IC50: rAgg1, WAAG-3R substrate, read-out: AGG-1 IC50
T1 sequence (O75173 213-837): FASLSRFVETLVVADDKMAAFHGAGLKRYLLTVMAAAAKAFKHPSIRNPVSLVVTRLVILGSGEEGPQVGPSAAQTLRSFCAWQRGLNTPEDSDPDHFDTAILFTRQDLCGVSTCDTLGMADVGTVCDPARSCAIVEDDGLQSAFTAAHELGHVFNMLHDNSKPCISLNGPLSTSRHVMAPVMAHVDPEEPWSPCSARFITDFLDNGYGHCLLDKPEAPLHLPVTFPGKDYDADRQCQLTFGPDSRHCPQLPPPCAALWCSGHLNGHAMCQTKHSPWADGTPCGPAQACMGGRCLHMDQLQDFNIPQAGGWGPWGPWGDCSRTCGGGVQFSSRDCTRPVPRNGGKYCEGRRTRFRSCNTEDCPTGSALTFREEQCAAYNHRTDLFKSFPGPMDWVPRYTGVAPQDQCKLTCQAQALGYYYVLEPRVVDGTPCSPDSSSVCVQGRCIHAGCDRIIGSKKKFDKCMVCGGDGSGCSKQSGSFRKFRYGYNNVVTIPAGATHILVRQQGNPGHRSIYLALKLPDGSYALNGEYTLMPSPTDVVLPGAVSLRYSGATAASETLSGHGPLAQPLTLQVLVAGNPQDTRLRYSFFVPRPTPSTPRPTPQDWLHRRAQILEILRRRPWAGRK
Experimental: h. Aggrecanase-1 FRET Assay:
The following protocol was used: • Fluorimeter was started and temperature set to 30° C., about 30 min before setting up the assay. The following reagents are used: • Buffer: 50 mM HEPES, pH 7.5, 100 mM NaCl, 5 mM CaCl2, 0.1% CHAPS, 5% glycerol. • rAgg1: 5 μg/ml (final concentration in the assay): • Substrate: WAAG-3R (MWT=1645.8, Anaspec, stored at 4° C.). Make a stock at 2 mg/ml in 100% DMSO. Measure the absorbance at 354 nm (ε=18172 M^−1 cm^−1) to determine the exact concentration. Dilute to 62.5 μM in buffer. Store unused 100% DMSO stock at −80° C. Final concentration of substrate in the assay is 25 μM. […] Make up inhibitors at 10× starting concentration in 100% DMSO. Perform serial dilutions (in duplicate) across the nunc plate in 100% DMSO; • Dilution plates: Nunc, polypropylene low binding (Nalgene) • Assay plate: Fluoronunc (Nalgene) • Fluorimeter: GeminiXS (Molecular Devices).; • The assay is performed as follows: The plates are set up so that the final column (12) is used for controls. Total reaction volume is 100 μl. Each compound is assayed in duplicate, so 4 compounds are screened per plate. • 1) Add buffer to the entire 96-well plate (30 ρl/well). • 2) Dilute rAgg1 to 25 μg/ml buffer just prior to addition on the plate. Add 20 μl/well to all wells. Mix 6 times. • 3) Add 10 μl/well of 10× inhibitors from the working plate, except column 12. Mix 6 times. […] Mix 6 times.
The reaction is monitored for 30-40 min at 30° C. λex: 340 nm and λ em: 420 nm). The fluorescence is linear during this time and the slope of the line (Vmax/sec) represents the initial reaction rate, ν. The maximal rate of cleavage of substrate is determined in the absence of inhibitor. The percent inhibition of activity in the presence of inhibitor is calculated as follows:
[formula] The IC50 was obtained by fitting the initial rate, ν, or % inhibition at each concentration of inhibitor to the following equation in Excel. y=(a−d)/(1+C/IC50)^n)+d This model describes a sigmoidal curve with an adjustable baseline, […]. y is the % inhibition or initial rate of reaction, C is the concentration of inhibitor under test. a is the limiting response as C approaches zero. […] The sign of n is positive when the response increases with increasing dose and is negative when the response decreases with increasing dose (inhibition).

[2] = molecular target: T2, MMP-13 (Homo sapiens, UniProt P45452); assay: In-vitro fluorescence assay of MMP-13 activity; format: biochemical
T2 construct: made in house
Experimental: A continuous assay was used in which the substrate is a synthetic peptide containing a fluorescent group (7-methoxycoumarin; Mca) which is quenched by energy transfer to a 2,4-dinitrophenyl group. […] The substrate used was Mca-PQGL-(3-[2,4-dinitrophenyl]-L-2,3-diaminopropionyl)-AR-OH (denoted as Wammp-5, custom synthesized by AnaSpec, Inc.). The assay buffer consisted of 50 mM Hepes (pH 7.4), 100 mM NaCl, 5 mM CaCl2, and 0.005% Brij-35. Each well of black polystyrene 96-well plates contained a 200 μL reaction mixture consisting of assay buffer, purified MMP (final concentration of 0.5 nM, prepared by diluting with the assay buffer), and varied concentrations of inhibitor (prepared by serially diluting a given inhibitor in DMSO in 96-well polypropylene plate). […] The enzymatic reactions were initiated by adding the substrate to a final concentration of 20 μM, and mixing 10 times with a pipette. The final DMSO concentration in the assay was 6.0%.
(§1) Plots of the inhibitor concentration vs. the percent inhibition were fit to the following equation: y=(a−d)/[1+(x/c)^b]+d, a general sigmoidal curve with Hill slope, a to d. x is the inhibitor concentration under test. y is the percent inhibition. a is the limiting response as x approaches zero. As x increases without bound, y tends toward its limit d. c is the inflection point (IC50) for the curve. That is, y is halfway between the lower and upper asymptotes when x=c. b is the slope factor or Hill coefficient.

[3] = molecular target: T3, MMP-1 (Homo sapiens, UniProt P03956)
T3 sequence (P03956 100-269 limits assumed): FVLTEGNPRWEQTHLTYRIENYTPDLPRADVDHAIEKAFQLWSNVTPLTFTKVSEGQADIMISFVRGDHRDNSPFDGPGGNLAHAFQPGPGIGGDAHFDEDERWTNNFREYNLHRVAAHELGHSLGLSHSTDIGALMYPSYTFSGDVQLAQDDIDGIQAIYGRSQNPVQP
Experimental: A continuous assay was used in which the substrate is a synthetic peptide containing a fluorescent group (7-methoxycoumarin; Mca) which is quenched by energy transfer to a 2,4-dinitrophenyl group. […] The substrate used was Mca-PQGL-(3-[2,4-dinitrophenyl]-L-2,3-diaminopropionyl)-AR-OH (denoted as Wammp-5, custom synthesized by AnaSpec, Inc.). The assay buffer consisted of 50 mM Hepes (pH 7.4), 100 mM NaCl, 5 mM CaCl2, and 0.005% Brij-35. Each well of black polystyrene 96-well plates contained a 200 μL reaction mixture consisting of assay buffer, purified MMP (final concentration of 25 ng/ml, prepared by diluting with the assay buffer), and varied concentrations of inhibitor (prepared by serially diluting a given inhibitor in DMSO in 96-well polypropylene plate). […] The enzymatic reactions were initiated by adding the substrate to a final concentration of 20 μM, and mixing 10 times with a pipette. The final DMSO concentration in the assay was 6.0%.
as §1

[4] = molecular target: T4, MMP-14 (Homo sapiens, UniProt P50281); assay: In-vitro fluorescence assay of MMP-14 activity; format: biochemical
T4 construct: 20 kDa; purchased Chemicon International, Inc. CC 1041

[5] = molecular target: T5, MMP-9 (Homo sapiens, UniProt P14780); assay: MMP-9 activity assay; format: biochemical; settings: recombinant human MMP-9
T5 construct: Active, recombinant human MMP-9 (83 kDa) was purchased from Calbiochem (catalog #PF024); purchased Calbiochem PF024
Experimental: A continuous assay was used in which the substrate is a synthetic peptide containing a fluorescent group (7-methoxycoumarin; Mca) that is quenched by energy transfer to a 2,4-dinitrophenyl group. […] The concentration of the substrate stock was spectrophotometrically determined using the extinction coefficient at 410 nm of 7500 M^−1cm^−1. The assay buffer (pH 7.4) consisted of 50 mM Hepes, 100 mM NaCl, 5 mM CaCl2, and 0.005% Brij-35. Each well of black polystyrene 96-well plates contained a reaction consisting of assay buffer, purified MMP (final concentration of 1.0 nM, prepared by dilution with assay buffer), and varied concentrations of inhibitor (prepared by serial dilution in DMSO in 96-well polypropylene plates). The plates were then incubated at room temperature for 30 minutes. […] The final DMSO concentration in the assay was 10% and the final, total assay volume was 200 μl. […] Plots of the inhibitor concentration vs. the initial cleavage rate were fit to the following equation in order to determine IC50 values: y=Vmax*(1−(x^n/(K^n+x^n))), whereby x=inhibitor concentration, y=initial rate, Vmax=initial rate in the absence of inhibitor, n=slope factor, and K=IC50 for the inhibition curve.
Active, recombinant human MMP-9 (83 kDa) was purchased from Calbiochem (catalog #PF024).

[6] = molecular target: T6, MMP-2 (Homo sapiens, UniProt P08253); assay: In-vitro fluorescence assay of MMP-2 activity; format: biochemical
T6 construct: purchased Oncogene Research Products (Calbiochem) PF023
T6 sequence (P08253 110-660): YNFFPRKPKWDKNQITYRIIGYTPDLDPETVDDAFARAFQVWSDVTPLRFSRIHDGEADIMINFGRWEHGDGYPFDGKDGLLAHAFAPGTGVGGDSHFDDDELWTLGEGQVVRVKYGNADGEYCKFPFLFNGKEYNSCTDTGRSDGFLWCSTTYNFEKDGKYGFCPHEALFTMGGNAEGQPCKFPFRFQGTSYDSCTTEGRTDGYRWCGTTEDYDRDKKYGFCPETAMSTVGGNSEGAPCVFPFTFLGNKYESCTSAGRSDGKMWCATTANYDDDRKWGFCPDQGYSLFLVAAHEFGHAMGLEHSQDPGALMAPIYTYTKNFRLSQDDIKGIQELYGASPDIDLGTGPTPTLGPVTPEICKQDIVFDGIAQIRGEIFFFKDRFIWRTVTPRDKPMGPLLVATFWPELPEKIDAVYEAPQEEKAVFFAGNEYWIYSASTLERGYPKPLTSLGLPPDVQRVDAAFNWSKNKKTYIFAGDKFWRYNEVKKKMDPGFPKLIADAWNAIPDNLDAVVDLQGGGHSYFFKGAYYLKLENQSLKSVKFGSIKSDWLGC

[7] = molecular target: T7, MMP-12 (Homo sapiens, UniProt P39900); assay: In vitro fluorescence assay of MMP-12 activity; format: biochemical; settings: recombinant human MMP-12
T7 construct: made in house
Experimental: A continuous, assay was used in which the substrate is a synthetic peptide containing a fluorescent group (7-methoxycoumarin; Mca) which is quenched by energy transfer to a 2,4-dinitrophenyl group. […] The concentration of the substrate stock was spectrophotometrically determined using the extinction coefficient at 410 nm of 7500 M^−1cm^−1. The assay buffer (pH 7.4) consisted of 50 mM Hepes, 100 mM NaCl, 5 mM CaCl2, and 0.005% Brij-35. […] The plates were then incubated at room temperature for 30 minutes. The enzymatic reactions were initiated by adding substrate to a final concentration of 20 μM and they were mixed by pipetting up and down. The final DMSO concentration in the assay was 10% and the final, total assay volume was 200 μl.

[8] = recombinant human catalytic domain of MMP-13, read-out: MMP-13 IC50
[9] = recombinant human MMP-2, read-out: MMP-2 IC50
[10] = recombinant human catalytic domain of MMP-14

T5 sequence (P14780 107-707 limits assumed): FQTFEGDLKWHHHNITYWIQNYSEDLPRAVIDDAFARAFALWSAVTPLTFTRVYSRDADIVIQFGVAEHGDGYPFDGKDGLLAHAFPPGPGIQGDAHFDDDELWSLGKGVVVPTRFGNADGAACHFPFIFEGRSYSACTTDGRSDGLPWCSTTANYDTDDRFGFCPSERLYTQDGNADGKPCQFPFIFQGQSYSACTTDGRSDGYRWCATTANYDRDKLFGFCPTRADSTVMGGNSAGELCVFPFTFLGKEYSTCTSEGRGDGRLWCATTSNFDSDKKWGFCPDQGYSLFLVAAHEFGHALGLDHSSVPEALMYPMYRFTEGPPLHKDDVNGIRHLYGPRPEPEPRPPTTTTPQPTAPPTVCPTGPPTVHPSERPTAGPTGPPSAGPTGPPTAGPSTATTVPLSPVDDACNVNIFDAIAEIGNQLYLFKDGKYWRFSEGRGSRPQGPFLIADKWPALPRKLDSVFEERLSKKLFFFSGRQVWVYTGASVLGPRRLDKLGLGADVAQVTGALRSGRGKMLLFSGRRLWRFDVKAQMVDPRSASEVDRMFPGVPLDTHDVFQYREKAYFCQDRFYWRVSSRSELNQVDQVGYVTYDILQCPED
T7 sequence (P39900 106-280 limits assumed): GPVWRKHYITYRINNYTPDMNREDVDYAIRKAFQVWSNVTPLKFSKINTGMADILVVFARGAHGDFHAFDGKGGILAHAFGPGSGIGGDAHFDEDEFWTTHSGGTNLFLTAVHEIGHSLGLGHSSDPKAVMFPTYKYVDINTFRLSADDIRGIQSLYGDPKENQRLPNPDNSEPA

Molecule `CC(C)C(NS(=O)(=O)c1ccc(-c2ccc(NS(=O)(=O)c3cccs3)cc2)cc1)C(=O)O` (stereo in doubt) [Example 171, (R)-3-Methyl-2-[4′-(thiophene-2-sulfonylamino)-biphenyl-4-sulfonylamino]-butyric acid] has an inhibition at 150 µM ([1]; read-out: AGG-1 % inhibition at a concentration) of 60% and an IC50 [2, 8] of 1.09 µM.
For `CC(C)[C@H](NS(=O)(=O)c1ccc(-c2ccc(NC(=O)c3cc4ccccc4o3)cc2)cc1)C(=O)O` [Example 2, L-2-{4′-[(Benzofuran-2-carbonyl)-amino]-biphenyl-4-sulfonylamino}-3-methyl-butyric acid], the IC50 [3] was > 3.5 µM, the IC50 [4] was 2.2 µM and the IC50 [5] was 1.1 µM. It also gave an IC50 [6, 9] of 0.0065 µM.
With `CC(C)[C@@H](NS(=O)(=O)c1ccc(-c2ccc(N(C)C(=O)c3cc4ccccc4o3)cc2)cc1)C(=O)O` [Example 75, D-2-{4′-[(Benzofuran-2-carbonyl)-methyl-amino]-biphenyl-4-sulfonylamino}-3-methyl-butyric acid] the IC50 [1] was 42 µM.
For `Cc1cc(-c2ccc(S(=O)(=O)N[C@@H](C(=O)O)C(C)C)cc2)cc(C)c1OC(=O)c1oc2ccccc2c1C` [Example 132, D-3-Methyl-benzofuran-2-carboxylic acid 4′-(1-carboxy-2-methyl-propylsulfamoyl)-3,5-dimethyl-biphenyl-4-yl ester], the IC50 [1] was 2.2 µM, the IC50 [4, 10] was 100 µM and the IC50 [2, 8] was 0.014 µM. The IC50 [6, 9] was 0.346 µM.
With `Cc1cc(-c2ccc(S(=O)(=O)N[C@@H](C(=O)O)C(C)C)cc2)cc(C)c1OC(=O)c1cc2ccccc2o1` [Example 133, D-Benzofuran-2-carboxylic acid 4′-(1-carboxy-2-methyl-propylsulfamoyl)-3,5-dimethyl-biphenyl-4-yl ester] the IC50 [1] was 0.8 µM, the IC50 [3] was 100 µM and the IC50 [4, 10] was 12 µM. For the same molecule, the IC50 [2, 8] was 0.0052 µM and the IC50 [6, 9] was 0.064 µM.
In the case of `Cc1c(C(=O)Oc2ccc(-c3ccc(S(=O)(=O)N[C@@H](C(=O)O)C(C)C)cc3)cc2)oc2ccccc12` [Example 134, D-3-Methyl-benzofuran-2-carboxylic acid 4′-(1-carboxy-2-methyl-propylsulfamoyl)-biphenyl-4-yl ester], the IC50 [1] is reported as 0.113 µM, the IC50 [4, 10] is reported as 6.25 µM and the IC50 [2, 8] is reported as 0.0012 µM. For the same molecule, the IC50 [6, 9] was 0.017 µM.
With `CC(C)[C@@H](NS(=O)(=O)c1ccc(-c2ccc(OCc3nc4ccccc4s3)cc2)cc1)C(=O)O` [Example 137, D-2-[4′-(Benzothiazol-2-ylmethoxy)-biphenyl-4-sulfonylamino]-3-methyl-butyric acid] the IC50 [1] was 2.5 µM, the inhibition at […] ([4]; read-out: MMP-14 % inhibition at a concentration, at 1.6 uM) was 49% and the IC50 [2, 8] was 0.0046 µM. The IC50 [6, 9] was 0.0239 µM.
Work on `CC(C)[C@@H](NS(=O)(=O)c1ccc(-c2ccc(OC(=O)c3ccco3)cc2)cc1)C(=O)O` [Example 144, N-{[4′-(2-Furoyloxy)-1,1′-biphenyl-4-yl]sulfonyl}-D-valine] yielded an IC50 [1] of 11.6 µM.
`CC(C)[C@@H](NS(=O)(=O)c1ccc(-c2ccc(OC(=O)c3ccoc3)cc2)cc1)C(=O)O` [Example 145, N-{[4′-(3-Furoyloxy)-1,1′-biphenyl-4-yl]sulfonyl}-D-valine] gave an IC50 [1] of 8.6 µM.
`COc1c(Br)ccc2oc(COc3ccc(-c4ccc(S(=O)(=O)N[C@H](C(=O)O)C(C)C)cc4)cc3)c(C)c12` [Example 148, N-({4′-[(5-Bromo-4-methoxy-3-methyl-1-benzofuran-2-yl)methoxy]-1,1′-biphenyl-4-yl}sulfonyl)-L-valine] gave an IC50 [1] of 0.4 µM, an IC50 ([2]; MMP-13 IC50, recombinant human catalytic domain of MMP-13) of 0.0014 µM and an IC50 [6] of 0.136 µM.
For `CC(C)[C@@H](NS(=O)(=O)c1ccc(-c2ccc(CS(=O)(=O)c3cc4ccccc4o3)cc2)cc1)C(=O)O` [Example 164, D-2-[4′-(Benzofuran-2-sulfonylmethyl)-biphenyl-4-sulfonylamino]-3-methyl-butyric acid], the IC50 [1] was 12.7 µM, the IC50 [3] was 500 µM and the IC50 [4, 10] was 1.43 µM. The IC50 [2, 8] was 0.0011 µM and the IC50 [6, 9] was 0.0056 µM.
`CC(C)[C@@H](NS(=O)(=O)c1ccc(-c2ccc(C[S+]([O-])c3cc4ccccc4o3)cc2)cc1)C(=O)O` (stereo partly drawn) [Example 165, D-2-[4′-(Benzofuran-2-sulfinylmethyl)-biphenyl-4-sulfonylamino]-3-methyl-butyric acid] was tested, and the IC50 [1] was 20 µM, the IC50 [4, 10] was 2.12 µM and the IC50 [2, 8] was 0.0012 µM. For the same molecule, the IC50 [7] was 0.0046 µM and the IC50 [6, 9] was 0.0056 µM.
`CC(C)[C@@H](NS(=O)(=O)c1ccc(-c2ccc(NC(=O)c3ccco3)cc2)cc1)C(=O)O` [Example 172, (R)-2-{4′-[(Furan-2-carbonyl)-amino]-biphenyl-4-sulfonylamino}-3-methyl-butyric acid] gave an IC50 [1] of 43 µM, an IC50 [3] of 18.5 µM and an IC50 [4, 10] of 8.92 µM. The IC50 [2, 8] was 0.029 µM and the IC50 [6, 9] was 0.0069 µM.
`CC(C)[C@@H](NS(=O)(=O)c1ccc(-c2ccc(NC(=O)c3cccs3)cc2)cc1)C(=O)O` [Example 173, (R)-3-Methyl-2-{4′-[(thiophene-2-carbonyl)-amino]-biphenyl-4-sulfonylamino}-butyric acid] gave an IC50 [1] of 25.4 µM and an IC50 [2, 8] of 0.115 µM.
